In brackets after ≈: the same amount, converted by molar mass.
Key:
Assay type in all cases: cell-based
A. baumannii strain TP3 [1] = test: Checkerboard assay, phage cocktail and minocycline; conditions: Acinetobacter baumannii, TP3, read-out: Minimal Inhibition Concentration (MIC)
A. baumannii strain TP3 [2] = test: Minocycline ETEST; conditions: Acinetobacter baumannii, TP3, read-out: IC50 of A. baumannii strain TP3 to minocycline by ETEST
Protocol: For example, this assay was performed in order to better understand the interaction between the phage cocktail and minocycline administered in combination to the patient discussed in Example 5. Specifically, each well of a 96 well plate contained tryptic soy media with 1% tetrazolium dye (v/v) for bacterial growth media. […] The wells with antibiotics were then serially diluted 1:1 from row A down to row F. Phage were then added to each well starting at 10^7 pfu per well in column 1 and then serially diluted 1:10 across from column 1 to 6. All wells were then inoculated with approximately 10^4 cfu of bacteria per well. This design allows for antibiotic dilutions going down the columns and dilutions of phage going across the rows. Columns 7 and 8 represent antibiotic control wells and rows G and H represent phage control wells. However, wells G7, G8, H7, and H8 represent bacteria only control wells. […] The IC50 of A. baumannii strain TP3 to minocycline by ETEST (bioMerieux USA, Durham, NC) was 4 μg/mL.

A. baumannii isolate = test: Minocycline susceptibility of patient's isolate; conditions: day 115, previously obtained isolate
[3] = test system: meropenem^R K. pneumoniae 4640; test: Phage efficacy assay with meropenem and phage; conditions: alone; meropenem 4 μg/ml; phage MOI 100; 48 hours at 37° C.
Protocol: The assay is based on the interaction between lytic phage and bacteria in a liquid environment. In this liquid assay system, tetrazolium dye is added with media. During active growth of bacteria, cellular respiration reduces the tetrazolium dye and produces a color change that is captured by a camera. In this system as many as 400 phage efficacy assays in the presence of a targeted bacterium can be performed simultaneously but separately, thus allowing monitoring of the kinetics of bacterial growth and the development of resistance over the course of the experiment. The interpretation of such phage-bacterial interaction data in liquid environment permits the selection of phages that are highly virulent against the given bacteria, evidenced by a hold-time of at least 4 hours. Further selection of these phages for cocktail preparation is evaluated using the same liquid assay in the presence of various mixtures of these virulent phages.
Using the phage efficacy assay described in Example 1, 10^4 cfu of meropenem^R K. pneumoniae was grown at 37° C. for 48 hours in the following conditions: (a) alone; (b) meropenem or phage (MOI 100); and (c) meropenem and varying MOIs of phage (MOI 0.01-100). The concentration of meropenem used for the indicated cultures was 4 μg/ml. […] The readout of this assay is bacterial growth hold-time.

[4] = test system: vancomycin-resistant E. faecalis (VRE); test: microbe, parasite or virus in culture
Protocol: A culture of VRE was first grown in tryptic soy broth (Remel Cat #R455054) to an Optical Density (OD) of 0.5 at 600 nm. Tryptic soy with tetrazolium dye D (BioLog Cat #74224) was added to a 1% v/v ratio and then sterilized through a 0.22 μm filtration unit (Millipore Cat #SCGP00525). VRE stock phage was serially diluted in tryptic soy broth with dye in separate Eppendorf tubes to a final concentration of 10^7 pfu/ml. Vancomycin (Sigma, Cat #SBR00001-10 ml) was diluted separately in tryptic soy broth with tetrazolium dye to a concentration equal to 4 times the Minimal Inhibition Concentration (MIC) for the bacteria being used.
Briefly, microtiter plates for the phage-antibiotics synergy assay were prepared as follows. Tryptic soy broth with dye was added to the plate first. Next 50 μl of tryptic soy with tetrazolium dye was added to each well. […] The wells with Vancomycin were serially diluted 1:1 from row A down to row F. Phage were added to each well starting at 10^7 pfu/well in column 1 and then serially diluted 1:10 across from column 1 to 6. Individual phage was added at an MOI of 100. Finally all wells were inoculated with approximately 10^4 cfu of E. faecalis bacteria per well. […] The color change of all plates was recorded every 15 minutes over the course of the 48 hour incubation period.

## CN(C)c1ccc(O)c2c1C[C@H]1C[C@H]3[C@H](N(C)C)C(O)=C(C(N)=O)C(=O)[C@@]3(O)C(O)=C1C2=O [minocycline]
A. baumannii strain TP3 [1]
  MIC: 32 µg/mL
A. baumannii strain TP3 [2]
  IC50: 4 µg/mL
A. baumannii isolate
  concentration at which isolate found susceptible: 3 µg/mL

## C[C@@H](O)[C@H]1C(=O)N2C(C(=O)O)=C(S[C@@H]3CN[C@H](C(=O)N(C)C)C3)[C@H](C)[C@H]12 [meropenem]
[3]
  hold-time: approximately 6 hours

## CN[C@H](CC(C)C)C(=O)N[C@H]1C(=O)N[C@@H](CC(N)=O)C(=O)N[C@H]2C(=O)N[C@H]3C(=O)N[C@H](C(=O)N[C@H](C(=O)O)c4cc(O)cc(O)c4-c4cc3ccc4O)[C@H](O)c3ccc(c(Cl)c3)Oc3cc2cc(c3O[C@@H]2O[C@H](CO)[C@@H](O)[C@H](O)[C@H]2O[C@H]2C[C@](C)(N)[C@H](O)[C@H](C)O2)Oc2ccc(cc2Cl)[C@H]1O [Vancomycin]
[4]; 10^4 cfu per well, phage MOI of 100, vancomycin 16 μg/ml, 48 hours at 37° C., FIG. 25
  delay of bacterial growth: up to 18 hours
[4]; Enterococcus faecalis, VRE, read-out: minimal inhibitory concentration for E. faecalis
  MIC: 16 µg/mL (≈ 11 µM)

Reference: patent US12448705B2, “Bacteriophage compositions and methods of selection of components against specific bacteria” (priority 2016, dated 2025)
